Legend:
[1] = tested on: Aspergillus niger (DSM 12623); assay: Minimum inhibitory concentration and synergy index (Kull) in Sabouraud glucose agar, visual growth reading; format: cell-based; conditions: 72 hours at 25° C.; for Synergistic Index Qa/QA + Qb/QB: below 1 = synergism, 1 = additive, above 1 = antagonism
Procedure: (§1) The synergism of a combination of 2-Methyl-isothiazolinone (MIT) with N,N-Dimethyldodecan-1-amine oxide was tested. Test organisms used was the mould Aspergillus niger (DSM 12623). For the purpose of the test, mixtures containing different concentrations of MIT and N,N-Dimethyldodecan-1-amine oxide were prepared and tested for their action on Aspergillus niger. […] The MIC is the concentration at which there is no formation of colonies or mycelia on the surface of the agar (Aspergillus niger).
(§2) The synergism that occurred was presented numerically by calculation of the synergy index (SI). This calculation was made using the common method of F. C. Kull et al., Applied Microbiology, vol. 9 (1961), p. 538. SI is calculated there in accordance with the following formula:
(§3) Synergy index SI=Qa/QA+Qb/QB
In the application of this formula to the MIT+N,N-Dimethyldodecan-1-amine oxide biocide system tested here, the variables in the formula have the following definition:
(§4) Qa=concentration of MIT in the mixture of N,N-Dimethyldodecan-1-amine oxide+MIT QA=concentration of MIT as sole biocide Qb=concentration of N,N-Dimethyldodecan-1-amine oxide in the biocide mixture of N,N-Dimethyldodecan-1-amine oxide+MIT QB=concentration of N,N-Dimethyldodecan-1-amine oxide as sole biocide
(§5) If the synergy index has a value of more than 1, this means that there is an antagonism. If the synergy index adopts a value of 1, this means that the action of the two biocides is additive. If the synergy index takes on a value of below 1, this means that there is synergism of the two biocides.
Determination of the Synergy Index of N,N-Dimethyldodecan-1-amine oxide+MIT in Respect of Aspergillus niger for an Incubation Time of 72 Hours at 25° C.

[2] = tested on: Candida albicans (ATCC 10231); assay: Minimum inhibitory concentration and synergy index according to Kull et al.; format: cell-based; conditions: for Synergistic Index Qa/QA + Qb/QB: MIT + amine oxide
Procedure: as §1, §2, §3, §4, §5
Determination of the Synergy Index According to Kull et al. of N,N-Dimethyldodecan-1-amine oxide+MIT in Respect of Candida albicans (ATCC 10231)
The cell density of Candida albicans (ATCC 10231) was 10^6/ml, incubation time 72 hours, temperature 25° C.
Determination of the Synergy Index According to Kull et al. of N,N-Dimethyldodecan-1-amine oxide+MIT+2-n-octyl-4-isothiazolin-3-one (OIT) in Respect of Candida albicans (ATCC 10231)

[3] = Table 2, sum of MIT and amine oxide at MIC

Compound	Synergistic Index Qa/QA + Qb/QB [1]	MHK Qb (Amine oxide) ([1]; amine oxide concentration at MIC, alone (MIC) or in mixture with MIT)	Synergistic Index Qa/QA + Qb/QB ([2]; Table 2, 72 hours, 25° C.)	MHK Qb (Amine oxide) ([2]; Table 2, amine oxide concentration at MIC, alone or in mixture with MIT, 72 hours, 25° C.) [ppm]	Qb/QB ([2]; Table 2, amine oxide in mixture / amine oxide as sole biocide)	Total [2, 3] [ppm]	MHK Qa (MIT) ([1]; MIT concentration at MIC, alone (MIC) or in mixture with amine oxide, 3,7·10^6 spores per ml)	MHK Qa (MIT) ([2]; Table 2, MIT concentration at MIC, alone or in mixture with amine oxide, 10^6/ml, 72 hours, 25° C.) [ppm]	Qa/QA ([2]; Table 2, MIT in mixture / MIT as sole biocide)	Total ([2]; Table 3) [ppm]	Synergistic Index ([2]; Table 3, MIT + amine oxide + OIT)	Qb/QB ([2]; Table 3, OIT component)	MHK Qb (OIT) ([2]; Table 3, OIT concentration at MIC, alone or with MIT + amine oxide) [ppm]
CCCCCCCCCCCC[N+](C)(C)[O-] [Amine oxide, N,N-Dimethyldodecan-1-amine oxide]	1.00	231 (MIC) ppm	1.00	50	1.00	50	–	–	–	–	–	–	–
Cn1sccc1=O [MIT, 2-methylisothiazolin-3-one]	1.00	–	1.00	–	–	125	1000 (MIC) ppm	125	1.00	–	–	–	–
CCCCCCCCn1sccc1=O [OIT, 2-n-octyl-4-isothiazolin-3-one]	–	–	–	–	–	–	–	–	–	3	1.00	1.00	3
